# Assay results taken from patent US8101605B2, “SHIP1 modulators and methods related thereto” (Aquinox Pharmaceuticals Inc., priority 2009, dated 2012).
# What was measured:
# [1] = biological target: T1, His-hSHIP1 enzyme (Homo sapiens, UniProt Q92835); assay: His-hSHIP1 phosphatase activity assay (IP4 substrate, Biomol Green); type: biochemical; conditions: percentage increase relative to background; concentrations ≦300 μM
# T1 sequence (Q92835 1-1189): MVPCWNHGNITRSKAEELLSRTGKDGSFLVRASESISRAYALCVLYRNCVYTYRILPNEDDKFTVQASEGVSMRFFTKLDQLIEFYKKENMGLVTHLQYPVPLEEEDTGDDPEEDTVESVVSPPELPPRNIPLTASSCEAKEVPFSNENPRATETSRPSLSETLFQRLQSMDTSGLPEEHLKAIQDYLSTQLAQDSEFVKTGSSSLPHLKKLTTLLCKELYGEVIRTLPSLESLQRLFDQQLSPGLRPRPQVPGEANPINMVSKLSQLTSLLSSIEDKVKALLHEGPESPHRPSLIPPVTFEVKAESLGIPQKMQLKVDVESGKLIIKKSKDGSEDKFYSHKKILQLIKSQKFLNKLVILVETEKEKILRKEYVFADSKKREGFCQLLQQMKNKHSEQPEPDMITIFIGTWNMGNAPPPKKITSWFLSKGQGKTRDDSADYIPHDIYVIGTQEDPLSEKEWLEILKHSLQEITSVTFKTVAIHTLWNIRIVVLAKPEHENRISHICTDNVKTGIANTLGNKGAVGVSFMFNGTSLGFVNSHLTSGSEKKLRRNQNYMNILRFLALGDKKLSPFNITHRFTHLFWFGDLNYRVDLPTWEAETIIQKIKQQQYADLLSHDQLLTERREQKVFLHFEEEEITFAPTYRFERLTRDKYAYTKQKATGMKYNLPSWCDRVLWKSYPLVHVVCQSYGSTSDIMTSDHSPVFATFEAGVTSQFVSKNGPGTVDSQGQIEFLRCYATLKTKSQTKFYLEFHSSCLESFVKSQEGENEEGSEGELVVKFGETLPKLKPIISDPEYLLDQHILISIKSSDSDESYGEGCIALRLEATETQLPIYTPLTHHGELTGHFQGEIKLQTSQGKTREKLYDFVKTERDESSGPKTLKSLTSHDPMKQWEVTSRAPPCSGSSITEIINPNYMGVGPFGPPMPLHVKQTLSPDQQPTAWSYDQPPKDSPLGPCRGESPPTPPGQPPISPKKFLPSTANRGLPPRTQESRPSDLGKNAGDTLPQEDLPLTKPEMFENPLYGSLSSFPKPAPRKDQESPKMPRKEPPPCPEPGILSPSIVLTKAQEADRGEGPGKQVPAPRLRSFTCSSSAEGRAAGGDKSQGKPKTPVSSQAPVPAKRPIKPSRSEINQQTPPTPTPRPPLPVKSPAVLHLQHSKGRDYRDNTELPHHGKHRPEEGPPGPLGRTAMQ
# Method in brief: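 His-hSHIP1 (15–20 ng) was incubated with IP4 (50 μM final) and compound (0–300 μM final, from 10% ethanol solutions) in 20 mM Tris-HCl, 10 mM MgCl2 pH 7.5, 0.02% Tween 20 for 15 min at 37 °C. Released phosphate was read with Biomol Green at 650 nm. Activation is % increase over background, scored + (<50%), ++ (≥50% but <65%), +++ (≥65%).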
# [2] = tested on: allergen-induced passive cutaneous anaphylaxis; assay: Passive cutaneous anaphylaxis in mice; type: in vivo; conditions: oral gavage, doses less than 20 mg/kg
# Method: The activity of representative compounds on passive cutaneous anaphylaxis in mice was evaluated according to the procedures disclosed by Ovary, J Immunol 81, 355-357, 1958 and Halpern et al., Br J Pharmacol Chemother 20, 389-398, 1963, both of which are incorporated herein by reference in their entirety. To induce a passive cutaneous anaphylaxis, mice underwent intradermal ear inoculation on their right ear with 25 ng in 20 μL of anti-DNP-IgE. The left ears were untreated and served as negative controls. Twenty-four hours after inoculation, all mice were administered test compound by oral gavage (PO). Sixty minutes after oral administration, mice were given a tail vein injection of 2% Evan's blue (0.2 μm filtered, in 200 μL saline) followed by a second tail IV injection of 100 μg DNP-HSA (in 200 μL). Sixty minutes following the DNP-HSA injection, mice were euthanized using CO2 inhalation. Subsequently, ear biopsies were performed by taking four millimetre punches from both ears, which then underwent Evan's Blue extraction using formamide incubation in 96 well plates. Eighty μL of eluents were transferred to flat-bottom 96-well plates and absorbance read using SpectraMax M5 spectrophotometer (Molecular Devices, Sunnyvale, Calif., USA) at 620 nm. Background readings from all samples were taken at 740 nm and subtracted from the 620 nm readings. Data were reported as OD. […] Scoring in Table 4 is expressed as follows: + (1-30% inhibition); ++ (31-50% inhibition); +++ (>50% inhibition).
# [3] = tested on: carrageenan-induced paw edema; assay: Carrageenan paw edema in mice; type: in vivo; conditions: oral, doses less than 30 mg/kg, 4 hours after carrageenan
# Method: The activity of representative compounds on carrageenan paw edema in mice was evaluated according to the procedures disclosed by Winter et al., Proc Soc Exp Biol Med 111, 544-547, 1962, which is incorporated herein by reference in its entirety. To induce edema in the paw, test compounds were administered orally one hour before intraplantar injection of the right hind paw with carrageenan (50 μL of 1% suspension). Hind paw edema, as a measure of inflammation, was recorded using a plethysmometer (Ugo Basile, Italy) 4 hours after λ-carrageenan administration.
Scoring: percent (%) activation of His-hSHIP1 enzyme [1],SMILES,Scoring: inhibition of passive cutaneous anaphylaxis [2],inhibition of carrageenan-induced paw edema [3]
+ (<50%),"Cc1cc(O)cc2c1[C@]1(C)CC[C@H]3C(C)(C)CCC[C@]3(C)[C@H]1CO2 [Compound No. 6, (1R,10R,11S,16S)-1,3,11,15,15-pentamethyl-8-oxatetracyclo[8.8.0.0^2,7.0^11,16]octadeca-2,4,6-trien-5-ol]",++ (31-50% inhibition),24%
+++ (≧65%),"CC1(C)CCC[C@]2(C)[C@H]3CS(=O)(=O)c4cc(O)cc(O)c4[C@]3(C)CC[C@@H]12 [Compound No. 28, (1R,10R,11S,16S)-3,5-dihydroxy-1,11,15,15-tetramethyl-8-thiatetracyclo[8.8.0.0^2,7.0^11,16]octadeca-2,4,6-triene-8,8-dione]",+++ (>50% inhibition),
